≈ marks a conversion by molar mass, not a printed value. Structures can show the parent of a compound that is named as a salt.
Experiments:
HEK293 = experiment: In vitro cytotoxicity assay
HepG2 = experiment: In vitro cytotoxicity assay
S. aureus strain Newman = experiment: IC50 determination of inhibition of staphyloxanthin synthesis; type: cell-based; conditions: Staphylococcus aureus; S. aureus strain Newman, Table 1; read-out: IC50, inhibitory activity on staphyloxanthin synthesis
Protocol: Selection of compound concentrations: based on the preliminary screening results, the ability of each compound to inhibit staphyloxanthin synthesis was determined. […] According to the assay results, 10 different concentration gradients were designed for each compound, such that the ability to inhibit staphyloxanthin synthesis comprised substantially from 0% to 100%.
Culture of the strains: single colonies of strain Newman and crtN mutant strain were picked from TSA plates, added into test tubes containing 4 mL of sterile TSB medium, and cultured at 37° C. and 250 rpm for 12 h for later use.
The relative level of staphyloxanthin synthesis at each concentration of the compound of the invention=A450 (sample)/A450 (negative control)*100%. With the molar concentration of the compound as the abscissa and the relative level of staphyloxanthin synthesis as the ordinate, a curve fitting of inhibitor concentration-inhibition rate (log(inhibitor) vs response) was performed in Graphpad prism 5.0 software, and the IC50 of the compound for inhibiting staphyloxanthin synthesis was calculated by software based on the fitting results.
S. aureus was selected for IC50 determination with respect to activity of inhibiting staphyloxanthin synthesis. […]

[1] = test system: Staphylococcus aureus subsp. aureus str. strain Newman; experiment: Preliminary screening assay of inhibition of staphyloxanthin synthesis; type: cell-based; conditions: 50, 10, 5, 2.5, 1.25, 0.625, 0.3125 and 0 μM from left to right
Protocol: Strains used for assay: freshly activated wild-type Staphylococcus aureus subsp. aureus str. strain Newman and its homologous mutant strain having crtN insertion (without staphyloxanthin synthesis).
Medium for assay: Tryptone Soy broth (TSB), a product from Oxid Corporation, the United Kingdom, which was formulated with distilled water, sterilized at 121° C. for 15 min for later use.
Method of Preliminary Screening Assay:
(1) Preparation of compound: the compound of the invention was dissolved in dimethyl sulfoxide (DMSO) to prepare a stock solution having a concentration of 10 mM; 400 μL of DMSO was added to 100 μL of the stock solution to get a dilution with a concentration of 2 mM; 250 μL (2 mM) of the dilution was taken after mixing, and an equal amount of DMSO was added thereto for 2-fold dilution to get a solution with a concentration of […] for later use.
(2) Culture of the strain: single colonies of strain Newman were picked from TSA plates into a test tube containing 4 mL of sterile TSB medium, and cultured at 37° C. and 250 rpm for 12 h for later use.

Microsporum gypseum = experiment: In vitro antifungal assay (micro liquid-based dilution); type: cell-based; conditions: Nannizzia gypsea, read-out: Antifungal Activities, MIC80
Tinea barbae = experiment: as above; type: cell-based; conditions: read-out: Antifungal Activities, MIC80
Trichophyton rubrum = experiment: as above; type: cell-based; conditions: read-out: Antifungal Activities, MIC80
NRS108 = experiment: In vivo pharmacodynamics evaluation in infected mice; conditions: BALB/c mice infected retroorbitally with NRS108
Protocol: (§1) Compound IA-25 was used as a representative compound. The laboratory SPF-grade female BALB/c mice were purchased from Shanghai Jiesijie Laboratory Animal Co., Ltd. and bred under aseptic condition to 6-8 weeks old. The S. aureus strains which had been cultured overnight were transferred to fresh and sterile TSB medium and cultured at 37° C. and 250 rpm for 3 h to exponential growth phase; the culture was washed twice with PBS buffer, and then suspended in PBS for later use. In the mouse infection assay, the mice were divided into several groups, each containing 10 mice.

strain Newman = experiment: as above; conditions: BALB/c mice infected retroorbitally with Newman
Protocol: as §1

LRSA202 = experiment: as above; conditions: BALB/c mice infected retroorbitally with LRSA202
Protocol: as §1

NF65Y = experiment: as above; conditions: BALB/c mice infected retroorbitally with NF65Y
Protocol: as §1

LRSA56 = experiment: as above; conditions: BALB/c mice infected retroorbitally with LRSA56
Protocol: as §1

NRS271 = experiment: as above; conditions: BALB/c mice infected retroorbitally with NRS271
Protocol: as §1

Mu50 = experiment: as above; conditions: BALB/c mice infected retroorbitally with Mu50
Protocol: as §1

[2] = test system: wild-type S. aureus Newman strain; experiment: Verification assay using CrtN as a target (HPLC of carotenoid extract); type: cell-based, Staphylococcus aureus; conditions: 100 μM added to wild-type strain Newman, 440 nm
CYP enzyme subtype 2C19 = CYP enzyme subtype 2C19 (Homo sapiens, UniProt P33261); experiment: Inhibition assay on hepatic CYP450 enzyme; type: in vitro ADME; conditions: CYP 2C19; read-out: Half inhibitory concentration (IC50)
Chain of CYP enzyme subtype 2C19 (P33261 whole entry): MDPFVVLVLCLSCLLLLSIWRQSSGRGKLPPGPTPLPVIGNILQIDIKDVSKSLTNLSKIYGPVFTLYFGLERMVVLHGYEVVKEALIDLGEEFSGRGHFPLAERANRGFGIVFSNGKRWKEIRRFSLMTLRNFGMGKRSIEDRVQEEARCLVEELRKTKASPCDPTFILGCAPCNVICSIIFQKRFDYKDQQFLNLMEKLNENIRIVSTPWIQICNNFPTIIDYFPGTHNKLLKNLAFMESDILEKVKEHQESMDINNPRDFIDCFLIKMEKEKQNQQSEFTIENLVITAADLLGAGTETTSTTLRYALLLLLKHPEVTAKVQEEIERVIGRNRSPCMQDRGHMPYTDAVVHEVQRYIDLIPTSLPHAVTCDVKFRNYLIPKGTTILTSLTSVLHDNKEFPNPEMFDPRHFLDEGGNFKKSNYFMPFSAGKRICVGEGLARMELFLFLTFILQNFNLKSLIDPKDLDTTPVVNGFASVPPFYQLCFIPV

SMILES: C[C@@H]1[C@H](O)[C@@H](C)/C=C/C=C/C=C/C=C/C=C/C=C/C=C/[C@H](O[C@@H]2O[C@H](C)[C@@H](O)[C@H](N)[C@@H]2O)C[C@@H]2O[C@](O)(C[C@@H](O)C[C@@H](O)[C@H](O)CC[C@@H](O)C[C@@H](O)CC(=O)O[C@H]1C)C[C@H](O)[C@H]2C(=O)O [Amphotericin B]
- CC50 of compounds on cells (HEK293): 3.923 µg/mL
- CC50 of compounds on cells (HepG2): 2.956 µg/mL

SMILES: Cc1ccccc1/C=C/CN(C)Cc1coc2ccccc12 [Compound IA-36, (E)-N-methyl-N-[(benzofuran-3-yl)methylene]-3-(2-methylphenyl)-prop-2-en-1-amine]
- IC50 (S. aureus strain Newman): 86.4 ± 0.6 nM

SMILES: Cc1cccc(/C=C/CN(C)Cc2coc3ccccc23)c1 [Compound IA-37, (E)-N-methyl-N-[(benzofuran-3-yl)methylene]-3-(3-methylphenyl)-prop-2-en-1-amine]
- IC50 (S. aureus strain Newman): > 1000 nM

SMILES: COc1ccc(/C=C/CN(C)Cc2coc3ccccc23)cc1F [Compound IA-38, (E)-N-methyl-N-[(benzofuran-3-yl)methylene]-3-(3-fluoro-4-methoxyphenyl)-prop-2-en-1-amine]
- IC50 (S. aureus strain Newman): > 1000 nM

SMILES: CN(C/C=C/C=C/c1ccc(-c2ccccc2)cc1)Cc1coc2ccccc12 [Compound IA-39, (2E,4E)-5-([1,1′-biphenyl]-4-yl)-N-(benzofuran-3-ylmethyl)-N-methylpenta-2,4-dien-1-amine]
- IC50 (S. aureus strain Newman): > 1000 nM

SMILES: CN(CC/C=C/c1ccc(-c2ccccc2)cc1)Cc1coc2ccccc12 [Compound IA-40, (E)-4-([1,1′-biphenyl]-4-yl)-N-(benzofuran-3-ylmethyl)-N-methylbut-3-en-1-amine]
- IC50 (S. aureus strain Newman): > 1000 nM

SMILES: CN(C/C=C/c1ccc(C(F)(F)F)cc1)Cc1csc2ccccc12 [Compound IA-41, (E)-N-(benzo[b]thiophen-3-ylmethyl)-N-methyl-3-(4-(trifluoromethyl)phenyl)prop-2-en-1-amine]
- IC50 (S. aureus strain Newman): 52.1 ± 0.8 nM

SMILES: FC(F)(F)c1ccc(/C=C/CNCc2coc3ccccc23)cc1 [Compound IB-1]
- IC50 (S. aureus strain Newman): > 1000 nM

SMILES: CCN(C/C=C/c1ccc(C(F)(F)F)cc1)Cc1coc2ccccc12 [Compound IB-2, (E)-N-ethyl-N-[(benzofuran-3-yl)methylene]-3-(4-trifluoromethylphenyl)-prop-2-en-1-amine]
- IC50 (S. aureus strain Newman): > 1000 nM

SMILES: CC(C)N(C/C=C/c1ccc(C(F)(F)F)cc1)Cc1coc2ccccc12 [Compound IB-3, (E)-N-isopropyl-N-[(benzofuran-3-yl)methylene]-3-(4-trifluoromethylphenyl)-prop-2-en-1-amine]
- IC50 (S. aureus strain Newman): > 1000 nM

SMILES: CN(Cc1coc2ccccc12)C[C@@H]1C[C@H]1c1ccc(-c2ccccc2)cc1 [Compound IC-1, 1-((1R,2R)-2-([1,1′-biphenyl]-4-yl)cyclopropyl)-N-(benzofuran-3-ylmethyl)-N-methylmethanamine]
- colors in final photograph of inhibition of staphyloxanthin synthesis [1]: white to yellow from left to right gradually
- IC50 (S. aureus strain Newman): > 1000 nM

SMILES: CN(CC#Cc1ccc(-c2ccccc2)cc1)Cc1coc2ccccc12 [Compound ID-1]
- IC50 (S. aureus strain Newman): > 1000 nM

SMILES: CN(CCCc1ccc(-c2ccccc2)cc1)Cc1coc2ccccc12 [Compound IE-1, 3-([1,1′-biphenyl]-4-yl)-N-(benzofuran-3-ylmethyl)-N-methylpropan-1-amine]
- IC50 (S. aureus strain Newman): > 1000 nM

SMILES: CN(C/C=C/c1ccc(C(F)(F)F)cc1)Cc1cc2ccccc2o1 [Compound IF-1, (E)-N-(benzofuran-2-ylmethyl)-N-methyl-3-(4-(trifluoromethyl)phenyl)prop-2-en-1-amine]
- IC50 (S. aureus strain Newman): 70.3 ± 5.2 nM

SMILES: CN(C/C=C/c1ccc(C(F)(F)F)cc1)Cc1cc2ccccc2s1 [Compound IF-2, (E)-N-(benzo[b]thiophen-2-ylmethyl)-N-methyl-3-(4-(trifluoromethyl)phenyl)prop-2-en-1-amine]
- IC50 (S. aureus strain Newman): 95.3 ± 1.6 nM

SMILES: OC(Cn1cncn1)(Cn1cncn1)c1ccc(F)cc1F [Fluconazole]
- MIC80 (Microsporum gypseum): 8 µg/mL (≈ 26.1 µM)
- MIC80 (Tinea barbae): 2 µg/mL (≈ 6.53 µM)
- MIC80 (Trichophyton rubrum): 1 µg/mL (≈ 3.27 µM)

SMILES: CC(=O)N1CCN(c2ccc(OCC3COC(Cn4ccnc4)(c4ccc(Cl)cc4Cl)O3)cc2)CC1 (stereo not drawn) [Ketoconazole]
- MIC80 (Microsporum gypseum): 2 µg/mL (≈ 3.76 µM)
- MIC80 (Tinea barbae): 0.0625 µg/mL (≈ 0.118 µM)
- MIC80 (Trichophyton rubrum): 0.5 µg/mL (≈ 0.941 µM)

SMILES: CC(=O)NC[C@H]1CN(c2ccc(N3CCOCC3)c(F)c2)C(=O)O1 [Linezolid]
- Viable colony counts in vivo (NRS108): 2.3 Log10CFU
- Viable colony counts in vivo (strain Newman): 4.9 Log10CFU
- Viable colony counts in vivo (LRSA202): 4.6 Log10CFU
- Viable colony counts in vivo (NF65Y): 5.1 Log10CFU
- Viable colony counts in vivo (LRSA56): 4.6 Log10CFU
- Viable colony counts in vivo (NRS271): 8.3 Log10CFU
- Viable colony counts in vivo (Mu50): 3.1 Log10CFU

SMILES: CN[C@H](CC(C)C)C(=O)N[C@H]1C(=O)N[C@@H](CC(N)=O)C(=O)N[C@H]2C(=O)N[C@H]3C(=O)N[C@H](C(=O)N[C@H](C(=O)O)c4cc(O)cc(O)c4-c4cc3ccc4O)[C@H](O)c3ccc(c(Cl)c3)Oc3cc2cc(c3O[C@@H]2O[C@H](CO)[C@@H](O)[C@H](O)[C@H]2O[C@H]2C[C@](C)(N)[C@H](O)[C@H](C)O2)Oc2ccc(cc2Cl)[C@H]1O [Vancomycin]
- Viable colony counts in vivo (NRS108): 2.4 Log10CFU
- Viable colony counts in vivo (strain Newman): 4.3 Log10CFU
- Viable colony counts in vivo (LRSA202): 5.3 Log10CFU
- Viable colony counts in vivo (NF65Y): 4.6 Log10CFU
- Viable colony counts in vivo (LRSA56): 3.8 Log10CFU
- Viable colony counts in vivo (NRS271): 6.5 Log10CFU
- Viable colony counts in vivo (Mu50): 5.4 Log10CFU

SMILES: C[C@@H](c1ncncc1F)[C@](O)(Cn1cncn1)c1ccc(F)cc1F [Voriconazole]
- MIC80 (Microsporum gypseum): 0.25 µg/mL (≈ 0.716 µM)
- MIC80 (Tinea barbae): 0.0312 µg/mL (≈ 0.0895 µM)
- MIC80 (Trichophyton rubrum): 0.0312 µg/mL (≈ 0.0895 µM)

SMILES: CN(C/C=C/c1ccccc1)Cc1cccc2ccccc12 [naftifine hydrochloride, reference compound]
- HPLC absorption peaks of carotenoid extract [2]: absorption peaks at the original peak position disappeared again

SMILES: COc1ccc2[nH]c([S+]([O-])Cc3ncc(C)c(OC)c3C)nc2c1 (stereo not drawn) [omeprazole, reference compound]
- IC50 (CYP enzyme subtype 2C19): 3880 nM

Reference: patent publication US10829464B2, “Benzoheterocyclic alkylamine compounds and use thereof” (priority 2016, dated 2020)
